Source: publication PMC2929646 (Nutrition research (New York, N.Y.), 2010)
Like-named read-outs stand apart in the source and are kept apart here.

Assays:
Caco-2 monolayers [1] = conditions: cited from earlier work
Caco-2 monolayers [2] = conditions: cited from earlier work; remark: listed apart in the source
Caco-2 cells [3] = conditions: cited from earlier work
[4] = Stability in cell-free experimental media; type: physicochemical; conditions: cell-free media (pH 5 PBS), 37°C, media 5 (EGCG), media 2 (dimers), mean ± SEM, n=4
[5] = system: Caco-2 human intestinal cells (TC7 clone); assay: Accumulation of catechin monomers and auto-oxidation dimers by Caco-2 monolayers
[6] = system: Caco-2 human intestinal cells; assay: Parallel accumulation and retention experiment in Caco-2 monolayers; type: in vitro ADME; conditions: after 3 h accumulation, 1 h in catechin/dimer-free PBS; mean ± SEM, n=4
[7] = cited from earlier work
[8] = cited from earlier work; remark: listed apart in the source
lipase = conditions: cited from earlier work
[9] = system: human histolytic lymphoma U937 cells; conditions: cited from earlier work
rat squalene epoxidase = conditions: relative to EGCG; cited from earlier work
U937 cells = conditions: cited from earlier work
[10] = system: fibrosarcoma HT1080 cells; conditions: cited from earlier work
Caco-2 cells [11] = conditions: media containing 50 µM ECG; cited from earlier work

## Oc1cc(O)c2c(c1)O[C@H](c1ccc(O)c(O)c1)[C@@H](O)C2 [(+)-C, (+)-catechin]
Caco-2 monolayers [1]
  apparent apical → basolateral permeability: 8e-07 cm/s
Caco-2 monolayers [2]
  membrane adsorption: 0.15–0.2 % transmembrane resistance, Ω cm^2

## O=C(O[C@@H]1Cc2c(O)cc(O)cc2O[C@@H]1c1cc(O)c(O)c(O)c1)c1cc(O)c(O)c(O)c1 [EGCG, (−)-epigallocatechin gallate]
Caco-2 cells [3]; previously reported by the authors
  3 h accumulation: 0.2–2.5 nmol/mg protein
[4]
  Stability over 3 h (percent of initial concentration): 91.8 ± 6.4%
[5]; 37°C, pH 5 PBS, media from EGCG + EGC (media 3, 6)
  net accumulation at 3 h (amount per mg protein): 1.89 ± 0.15 nmol/mg
[5]; 3 h, range over the media that contain the monomer
  Three h accumulation (range over monomer media): 1.24–1.35%

## theasinensins (THSNs) A/D [THSNs A/D]
[6]
  1 h Retention, Absolute: 7.08 ± 2.2 pmol/well
[7]
  O2^•− scavenging activity compared with EGCG: equal to or greater than EGCG
[8]
  Fe^2+ chelation activity compared with EGCG: equal to or greater than EGCG
[4]
  Stability over 3 h (percent of initial concentration): 100 ± 0.36%

## O=C(O[C@@H]1Cc2c(O)cc(O)cc2O[C@@H]1c1cc(O)c(O)c(O)c1-c1c([C@H]2Oc3cc(O)cc(O)c3C[C@H]2OC(=O)c2cc(O)c(O)c(O)c2)cc(O)c(O)c1O)c1cc(O)c(O)c(O)c1 [THSN A]
lipase
  inhibition of lipase compared with EGCG: more effective inhibitor of lipase than EGCG
[9]
  induction of apoptosis: induced apoptosis
Rat squalene epoxidase
  IC50 value, fold lower than EGCG: 5 ×
U937 cells
  inhibition of growth compared with EGCG: more effective at inhibiting the growth of U937 cells than EGCG

## O=C(O[C@@H]1Cc2c(O)cc(O)cc2O[C@@H]1c1cc(O)c(O)c(O)c1-c1c([C@H]2Oc3cc(O)cc(O)c3C[C@H]2OC(=O)c2cc(O)c(O)c(O)c2)cc(O)c(O)c1O)c1cc(O)c(O)c(O)c1 [THSN D]
[10]
  inhibition of invasive activity compared with EC, EGC and EGCG: better inhibitor of the invasive activity of fibrosarcoma HT1080 cells than EC and EGC, but was less effective than EGCG
[9]
  induction of apoptosis compared with EGCG: more effective than EGCG

## Oc1cc(O)c2c(c1)O[C@H](c1cc(O)c(O)c(O)c1)[C@H](O)C2 [EGC, (−)-epigallocatechin]
Caco-2 cells [3]
  3 h accumulation: 0.1–0.5 nmol/mg protein

## O=C(O[C@@H]1Cc2c(O)cc(O)cc2O[C@@H]1c1ccc(O)c(O)c1)c1cc(O)c(O)c(O)c1 [ECG, (−)-epicatechin gallate]
Caco-2 cells [11]
  1 h accumulation: roughly 3 nmol/mg protein

## Oc1cc(O)c2c(c1)O[C@H](c1ccc(O)c(O)c1)[C@@H](O)[C@@H]2c1c(O)cc(O)c2c1O[C@H](c1ccc(O)c(O)c1)[C@@H](O)C2 [procyanidin dimer B3, (+)-C-(4α→8)-(+)-C]
Caco-2 monolayers [1]
  apparent apical → basolateral permeability: 2e-06 cm/s
